The values that follow come from patent US10555961B2 (INDIANA UNIVERSITY RESEARCH AND TECHNOLOGY CORPORATION, priority 2015, dated 2020).

Common to all, as to assay type: cell-based
The subject of assay [1] is variant of Klebsiella pneumonia that exhibits multi-drug resistance. The conditions noted are these: multi-drug resistant Klebsiella pneumonia, FIG. 2. Here is the method: (§1) Bacterial assays were performed using native gentamicin and the C-1, C-1a, C-2, and C-2a congeners of gentamicin.
For another assay, the system named is UGAC stop codon. The experiment in a line: Stop codon readthrough (FIG. 7). The conditions noted are these: 200 μg mL^−1 for 24 hours, relative to controls.
In a further assay the test system is Bacillus subtilis. The assay is described as follows: Bacterial assay, kill zones and growth inhibition zones. The following applies: FIG. 2. As for the experimental part: as §1
The next assay has as its system Klebsiella pneumonia. The assay is described as above. The following applies: FIG. 2. Here is the method: as §1

Method for UGAC stop codon: Native gentamicin and various congeners prepared as in Example 1 were tested to determine their effect on stop codon readthrough.
In order to determine the optimal concentrations of the aminoglycosides (tobramycin, amikacin, and gentamicin) to use in the mammalian translation system, increasing amounts of each aminoglycoside were added to a rabbit reticulocyte translation system while expressing the QX(N) (UGAC) construct. The effect of aminoglycosides on total protein synthesis was monitored by comparing the total amount of proteins synthesized in the presence and absence of various aminoglycosides. A range of aminoglycoside concentrations was then determined that allowed a maximal amount of termination suppression without inhibiting total protein synthesis more than two- to threefold. In vitro translation reactions were carried out using the TNT coupled transcription/translation system (Promega, Madison, Wis.). […] The gel was dried and subjected to Phosphorlmager analysis in order to quantitate the amount of truncated and full-length protein species. The percentage of readthrough was then calculated as the amount of full-length protein/(truncated+full-length species)×100%.

In the case of C-1 gentamicin, the “anti-bacterial activity (kill zones and growth inhibition zones)” value (in assay [1]; in the assay on Bacillus subtilis; in the assay on Klebsiella pneumonia) was “demonstrated anti-bacterial activity” throughout. Moreover, in the assay on UGAC stop codon, the “readthrough of the stop codon UGAC” value is recorded as “greater readthrough relative to controls”.

As to C-1a gentamicin, the “anti-bacterial activity (kill zones and growth inhibition zones)” value (in assay [1]; in the assay with Bacillus subtilis; in the assay with Klebsiella pneumonia) was “demonstrated anti-bacterial activity” each time.

C-2 gentamicin: the “anti-bacterial activity (kill zones and growth inhibition zones)” value (in assay [1]; in the assay with Bacillus subtilis; in the assay with Klebsiella pneumonia) was “demonstrated anti-bacterial activity” in each case. In addition, the “readthrough of the stop codon UGAC” value in the assay with UGAC stop codon was “greater readthrough relative to controls”.

For C-2a gentamicin, the “anti-bacterial activity (kill zones and growth inhibition zones)” value (in assay [1]; with Bacillus subtilis; with Klebsiella pneumonia) was “demonstrated anti-bacterial activity” each time.
